Test results: US20250145561A1, “4-SUBSTITUTED-PHENYL ACETAMIDES AND ARYLUREAS AS AGONISTS FOR THE ORPHAN RECEPTOR GPR88” (RESEARCH TRIANGLE INSTITUTE, priority 2022, published 2025)

Molecular target: T1, GPR88 (Homo sapiens, UniProt Q9GZN0)
T1 construct: expressed in transfected cells
Test: Lance Ultra TR-FRET cAMP assay using stable PPLS-HA-GPR88 CHO cells
Type: cell-based
Details: for cAMP pEC50 / EC50: stable PPLS-HA-GPR88 CHO cells; for cAMP pEC50: 300 nM forskolin, mean ± standard error of at least three independent experiments in duplicate; for Emax: CHO; for EC50: value in parentheses beside pEC50
Description: The compounds of the present disclosure offer potent agonism to the orphan receptor GPR88. As such, the compounds of the present disclosure provide therapeutic potential for the treatment of striatal associated disorders such as Parkinson's disease, schizophrenia, and alcohol addiction. All compounds were evaluated for the GPR88 agonist activity in the inventors' previously established in vitro GPR88 Lance TR-FRET cAMP assay. See, supra, Jin et al., 2018, Rahman et al., 2020, and Rahman et al., 2021. As will be described, the TR-FRET signal was converted to fmol cAMP by interpolating from the standard cAMP curve. Fmol cAMP was plotted against the log of compound concentration and data were fit to a three-parameter logistic curve to generate maximum response (Emax) and EC50 values.
Lance™ Ultra cAMP assay using stable PPLS-HA-GPR88 CHO cells. All cAMP assays were performed using the inventors' previously published methods. […] ACS Chemical Neuroscience 2016, 7, 1418-1432, which is incorporated by reference herein with regard to such teaching. Stimulation buffer containing 1× Hank's Balanced Salt Solution (HBSS), 5 mM HEPES, 0.1% BSA stabilizer, and 0.5 mM final IBMX was prepared and titrated to pH 7.4 at room temperature. Serial dilutions of the test compounds (5 μL) and 300 nM forskolin (5 μL), both prepared at 4× the desired final concentration in 2% DMSO/stimulation buffer, were added to a 96-well white ½ area microplate (PerkinElmer). A cAMP standard curve was prepared at 4× the desired final concentration in stimulation buffer and 5 μL was added to the assay plate. Stable PPLS-HA-GPR88 CHO cells were lifted with versene and spun at 270 g for 10 minutes. The cell pellet was resuspended in stimulation buffer and 4,000 cells (10 μL) were added to each well except wells containing the cAMP standard curve. After incubating for 30 min at room temperature, Eu-cAMP tracer and uLIGHT-anti-cAMPworking solutions were added per the manufacturer's instructions. After incubation at room temperature for 1 hour, the TR-FRET signal (ex 337 nm) was read on a CLARIOstar multimode plate reader (BMG Biotech, Cary, NC).
Data Analysis. The TR-FRET signal (665 nm) was converted to fmol cAMP by interpolating from the standard cAMP curve. Fmol cAMP was plotted against the log of compound concentration and data were fit to a three-parameter logistic curve to generate EC50 values (Prism, version 6.0, GraphPad Software, Inc., San Diego, CA).

T1 sequence (Q9GZN0 whole entry): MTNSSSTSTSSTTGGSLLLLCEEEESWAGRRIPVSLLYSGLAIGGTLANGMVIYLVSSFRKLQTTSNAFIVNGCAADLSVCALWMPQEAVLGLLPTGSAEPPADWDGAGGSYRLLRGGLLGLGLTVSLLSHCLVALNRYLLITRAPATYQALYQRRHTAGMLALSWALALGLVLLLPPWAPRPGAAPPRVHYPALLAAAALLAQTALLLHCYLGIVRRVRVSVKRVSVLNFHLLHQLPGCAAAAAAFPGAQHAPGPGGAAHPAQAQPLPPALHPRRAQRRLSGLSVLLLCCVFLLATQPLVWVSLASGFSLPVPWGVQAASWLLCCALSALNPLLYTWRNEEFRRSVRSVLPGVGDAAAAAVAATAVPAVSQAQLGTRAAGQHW

SMILES | cAMP pEC50 | Emax | EC50
CCCC(C)COc1ccc([C@H](CO)C(=O)N[C@@H](C)c2ccccc2)cc1 (stereo partly drawn) [Compound 6, (2R)-3-Hydroxy-2-{4-[(2-methylpentyl)oxy]phenyl}-N-[(1 S)-1-phenylethyl]propenamide] | Inactive |  | 
CCCC(C)COc1ccc([C@@H](CO)C(=O)N[C@H](C)c2ccc(C)cc2)cc1 (stereo partly drawn) [Compound 11, (2S)-3-Hydroxy-2-{4-[(2-methylpentyl)oxy]phenyl}-N-[(1 R)-1-(4-methylphenyl)ethyl]propenamide] |  | 102 ± 7% | 
CCCc1ccc(-c2ccc([C@@H](CO)C(=O)N[C@H](C)c3ccccc3)cc2)cc1 [Compound 25, (2S)-3-Hydroxy-N-[(1 R)-1-phenylethyl]-2-{4′-propyl-[1,1′-biphenyl]-4-yl}propenamide] |  | 96 ± 3% | 0.138 µM
CCCc1ccc(-c2ccc(N(C[C@@H](N)[C@@H](C)CC)C(=O)N[C@@H]3C[C@H]3c3ccccc3)cc2)cc1 [Compound 44, 1-[(2S,3S)-2-Amino-3-methylpentyl]-3-[(1 R,2S)-2-phenylcyclopropyl]-1-(4′-propyl-[1,1′-biphenyl]-4-yl}urea] | Inactive |  | 
CCCc1ccc(-c2ccc(N(C[C@@H](N)[C@@H](C)CC)C(=O)N[C@@H](CC)c3ccccc3)cc2)cc1 [Compound 47, 3-[(2S,3S)-2-Amino-3-methylpentyl]-1-[(1 S)-1-phenylpropyl]-3-{4′-propyl-[1,1′-biphenyl]-4-yl}urea] |  | 103 ± 4% | 2 µM
CCCC(C)COc1ccc([C@@H](CO)C(=O)N[C@H](C)c2ccccc2)cc1 (stereo partly drawn) [Compound 4, (2S)-3-Hydroxy-2-{4-[(2-methylpentyl)oxy]phenyl}-N-[(1 R)-1-phenylethyl]propenamide] |  | 94 ± 13% | 0.2 µM
CCCc1ccc(-c2ccc(N(C[C@@H](N)[C@@H](C)CC)C(=O)N(C)c3ccccc3)cc2)cc1 [Compound 39, 3-[(2S,3S)-2-Amino-3-methylpentyl]-1-methyl-1-phenyl-3-{4′-propyl-[1,1′-biphenyl]-4-yi}urea] |  | 97 ± 12% | 2.82 µM
CCCC(C)COc1ccc([C@@H](CO)C(=O)Nc2ccccc2)cc1 (stereo partly drawn) [Compound 14, (2S)-3-Hydroxy-2-{4-[(2-methylpentyl)oxy]phenyl}-N-phenylpropanamide] | Inactive |  | 
CCCc1ccc(-c2ccc(N(C[C@@H](N)[C@@H](C)OC)C(=O)N[C@@H](C)c3ccccc3)cc2)cc1 [Compound 54, 3-[(2R,3R)-2-Amino-3-methoxybutyl]-1-[(1 S)-1-phenylethyl]-3-{4′-propyl-[1,1′-biphenyl]-4-yl}urea] |  | 106 ± 3% | 0.324 µM
CCCc1ccc(-c2ccc([C@@H](CC)C(=O)N[C@H](C)c3ccccc3)cc2)cc1 [Compound 27, (2R)—N-[(1 R)-1-Phenylethyl]-2-{4′-propyl-[1,1′-biphenyl]-4-yl}butanamide] |  | 93 ± 9% | 0.501 µM
CCCC(C)COc1ccc([C@@H](CO)C(=O)N[C@H](C)c2ccc(OC)cc2)cc1 (stereo partly drawn) [Compound 13, (2S)-3-Hydroxy-N-[(1 R)-1-(4-methoxyphenyl)ethyl]-2-{4-[(2-methylpentyl)oxy]phenyl}propenamide] |  | 94 ± 3% | 
CC(C)C#Cc1ccc([C@@H](CO)C(=O)N[C@H](C)c2ccccc2)cc1 [Compound 37, (2S)-3-Hydroxy-2-[4-(3-methylbut-1-yn-1-yl)phenyl]-N-[(1 R)-1-phenylethyl]propenamide] |  | 102 ± 2% | 0.479 µM
CCCC(C)COc1ccc([C@@H](CO)C(=O)N[C@H](CC)c2ccccc2)cc1 (stereo partly drawn) [Compound 17, (2S)-3-Hydroxy-2-{4-[(2-methylpentyl)oxy]phenyl}-N-[(1 R)-1-phenylpropyl]propenamide] |  | 102 ± 8% | 
CCCc1ccc(-c2ccc(C(C(=O)N[C@H](C)c3ccccc3)C(=O)OC)cc2)cc1 (mixture of isomers) [Compound 28, Methyl 2-{[(1 R)-1-Phenylethyl]carbamoyl}-2-{4′-propyl-[1,1′-biphenyl]-4-yl}acetate] |  | 99 ± 6% | 1.29 µM
CC[C@H](C)COc1ccc([C@@H](CO)C(=O)N[C@H](C)c2ccccc2)cc1 [Compound 7, (2S)-3-Hydroxy-2-{4-[(2S)-2-methylbutoxy]phenyl}-N-[(1 R)-1-phenylethyl]propenamide] |  | 88 ± 7% | 2 µM
CCOc1ccc(-c2ccc(N(C[C@@H](N)[C@@H](C)OC)C(=O)N[C@@H](C)c3ccccc3)cc2)cc1 [Compound 58, 3-[(2R,3R)-2-Amino-3-methoxybutyl]-1-[(1 S)-1-phenylethyl]-3-{4′-ethoxy-[1,1′-biphenyl]-4-yl}urea] |  | 102 ± 2% | 0.676 µM
CCCc1ccc(-c2ccc(N(C[C@H](N)CC(C)C)C(=O)N[C@@H](C)c3ccccc3)cc2)cc1 [Compound 51, 3-[(2R)-2-Amino-4-methylpentyl]-1-[(1 S)-1-phenylethyl]-3-{4′-propyl-[1,1′-biphenyl]-4-yl}urea] |  | 129 ± 4% | 1.41 µM
CCCC(C)COc1ccc([C@@H](CO)C(=O)N[C@H](C)c2cccs2)cc1 (stereo partly drawn) [Compound 23, (2S)-3-Hydroxy-2-{4-[(2-methylpentyl)oxy]phenyl}-N-[(1 R)-1-(thiophen-2-yl)ethyl]propenamide] |  | 93 ± 5% | 
CCCC(C)COc1ccc([C@@H](CO)C(=O)NC(C)(C)c2ccccc2)cc1 (stereo partly drawn) [Compound 19, (2S)-3-Hydroxy-2-{4-[(2-methylpentyl)oxy]phenyl}-N-(2-phenylpropan-2-yl)propenamide] | 5.90 ± 0.05 | 83 ± 2% | 1.26 µM
CCCC(C)COc1ccc([C@@H](CO)C(=O)N[C@@H](C)c2ccccc2)cc1 (stereo partly drawn) [Compound 5, (2S)-3-Hydroxy-2-{4-[(2-methylpentyl)oxy]phenyl}-N-[(1S)-1-phenylethyl]propenamide] | Inactive |  | 
CCCc1ccc(-c2ccc(N(C[C@@H](N)[C@@H](C)CC)C(=O)NCc3ccccc3)cc2)cc1 [Compound 40, 3-[(2S,3S)-2-Amino-3-methylpentyl]-1-benzyl-3-{4′-propyl-[1,1′-biphenyl]-4-yl}urea] |  | 97 ± 4% | 2 µM
CC[C@@H](C)COc1ccc([C@@H](CO)C(=O)N[C@H](C)c2ccccc2)cc1 [Compound 8, (2S)-3-Hydroxy-2-{4-[(2R)-2-methylbutoxy]phenyl}-N-[(1 R)-1-phenylethyl]propenamide] |  | 96 ± 13% | 3.09 µM
CCCC(C)COc1ccc([C@@H](CO)C(=O)N[C@H](COC)c2ccccc2)cc1 (stereo partly drawn) [Compound 18, (2S)-3-Hydroxy-N-[(1 S)-2-methoxy-1-phenylethyl]-2-{4-[(2-methylpentyl)oxy]phenyl}propenamide] |  | 91 ± 4% | 
CCCc1ccc(-c2ccc(N(C[C@@H](N)[C@@H](C)CC)C(=O)N[C@@H](COC)c3ccccc3)cc2)cc1 [Compound 48, 3-[(2S,3S)-2-Amino-3-methylpentyl]-1-[(1 R)-2-methoxy-1-phenylethyl]-3-{4′-propyl-[1,1′-biphenyl]-4-yl}urea] |  | 110 ± 5% | 1.55 µM
CO[C@H](C)[C@H](N)CN(C(=O)N[C@@H](C)c1ccccc1)c1ccc(-c2ccc(OC(C)C)cc2)cc1 [Compound 59, 3-[(2R,3R)-2-Amino-3-methoxybutyl]-1-[(1 S)-1-phenylethyl]-3-[4′-(propan-2-yloxy)-[1,1′-biphenyl]-4-yl]urea] |  | 100 ± 4% | 0.407 µM
CCCc1ccc(-c2ccc(N(C[C@@H](N)[C@@H](C)CC)C(=O)Nc3ccccc3)cc2)cc1 [Compound 38, 3-[(2S,3S)-2-Amino-3-methylpentyl]-1-phenyl-3-{4′-propyl-[1,1′-biphenyl]-4-yl}urea] | Inactive |  | 
CCCc1ccc(-c2ccc(N(C[C@@H](N)[C@@H](C)CC)C(=O)NC3(c4ccccc4)CC3)cc2)cc1 [Compound 46, 1-[(2S,3S)-2-Amino-3-methylpentyl]-3-(1-phenylcyclopropyl)-1-{4′-propyl-[1,1′-biphenyl]-4-yl}urea] |  | 91 ± 4% | 1.86 µM
CCCc1ccc(-c2ccc(N(C[C@@H](N)[C@@H](C)CC)C(=O)N[C@H]3C[C@@H]3c3ccccc3)cc2)cc1 [Compound 45, 1-[(2S,3S)-2-Amino-3-methylpentyl]-3-[(1 S,2R)-2-phenylcyclopropyl]-1-(4′-propyl-[1,1′-biphenyl]-4-yl}urea] |  | 110 ± 5% | 2.29 µM
